Data reported in patent US20240132887A1, “PROTEIN ARGININE METHYLTRANSFERASE 9 INHIBITORS AND METHODS OF USE” (City of Hope, priority 2022, published 2024).

How the values were obtained:
[1] = target: T1, PRMT9 (Homo sapiens, UniProt Q6P2P2); experiment: In-house R493 methylation assay (PABPC1 peptide, SAM, dot blot with anti-R493me antibody); format: biochemical; conditions: for PRMT9 inhibition (catalytic activity screen of top 20 compounds): compounds 10 μM, PRMT9 pretreated 1 h
T1 construct: Myc; made in house
T1 sequence (Q6P2P2 1-845): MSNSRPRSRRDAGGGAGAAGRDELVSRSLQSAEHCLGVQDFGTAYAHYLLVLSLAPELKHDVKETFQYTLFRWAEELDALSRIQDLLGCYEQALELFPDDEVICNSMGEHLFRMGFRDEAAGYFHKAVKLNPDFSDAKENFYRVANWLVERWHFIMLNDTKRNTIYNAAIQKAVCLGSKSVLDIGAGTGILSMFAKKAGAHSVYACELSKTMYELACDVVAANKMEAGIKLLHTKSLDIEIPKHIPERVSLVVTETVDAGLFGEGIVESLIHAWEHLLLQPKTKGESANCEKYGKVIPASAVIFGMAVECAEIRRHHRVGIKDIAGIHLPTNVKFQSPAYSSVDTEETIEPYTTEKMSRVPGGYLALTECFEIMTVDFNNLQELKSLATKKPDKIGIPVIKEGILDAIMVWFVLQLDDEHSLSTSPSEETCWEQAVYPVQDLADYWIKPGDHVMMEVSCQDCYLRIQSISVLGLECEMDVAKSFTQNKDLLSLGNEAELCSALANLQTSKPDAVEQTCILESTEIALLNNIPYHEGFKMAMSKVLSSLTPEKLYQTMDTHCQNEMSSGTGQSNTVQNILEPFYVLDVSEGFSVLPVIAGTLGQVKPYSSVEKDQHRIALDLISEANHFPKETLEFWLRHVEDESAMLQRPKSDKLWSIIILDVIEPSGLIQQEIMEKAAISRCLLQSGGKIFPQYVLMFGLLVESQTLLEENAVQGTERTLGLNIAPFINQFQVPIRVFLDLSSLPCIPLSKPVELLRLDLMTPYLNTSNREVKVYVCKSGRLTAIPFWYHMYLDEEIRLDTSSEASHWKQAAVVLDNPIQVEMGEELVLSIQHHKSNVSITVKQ
Experimental: FIG. 10D: Catalytic activity screen of 9 selected compounds using an in-house R493 methylation assay. PRMT9 protein was pretreated 1 h with indicated compounds using in vitro methylation buffer and then incubated with synthesized unmodified PABPC1 peptides and SAM. […] Catalytic activity inhibition curves are calculated based on intensity of blots normalized to intensity at 37° C. (n=2). […] Data (FIG. 10I) are represented as mean±SD; P values (FIG. 10I) were determined by two-way ANOVA.
FIG. 11B: In-house R493 methylation assay. Synthesized unmodified PABPC1 peptides (aaG491-T507) were incubated 4 h with PRMT9 and SAM at 30° C. Catalytic activity was assessed by dot blot with anti-R493 specific antibody. PRMT9 or unmodified PABPC1 peptide alone served as negative controls, and synthesized R493me PABPC1 peptide as positive. FIG. 11C: Catalytic activity screen of top 20 compounds based on Molm13 viability assay with an in-house R493 methylation assay. PRMT9 protein was pretreated 1 h with indicated compounds (10 μM) and then incubated with synthesized unmodified PABPC1 peptides and SAM. Catalytic activity was assessed by dot blot with an anti-R493me specific antibody.

[2] = system: MNCs from AML BM specimens; experiment: Primary AML MNC ex-vivo culture (CyTOF, flow cytometry); format: cell-based, human; conditions: αPD-1 alone or combined with LD2, 4 days ex-vivo
Experimental: Spanning-tree Progression Analysis of Density-normalized Events (SPADE) clustering was performed to identify cell groups corresponding to immunophenotypic subsets across normal hematopoiesis lineages. The frequency of CD3^+ T cells and CD34^+CD45^dim AML blast cells were noted. […] The relative number of alive CD34^+CD45^dim AML blast cells was assessed by flow cytometry. Data are presented as mean±SD from 3 independent experiments.
After 4 days treatment of vehicle (VEH) or LD2, survival of leukemic (CD34+CD33+) and immune subsets, including T cells (CD3+), B cells (CD19+/CD20+), and DCs (HLA-DR+CD34−CD33−CD3−CD19−CD20−CD14−CD56−), were accessed using Annexin-V staining.
LD2 treatment in total of 4 days ex-vivo culture (under the BM stroma cytokine condition).

Compound	PRMT9 inhibition (catalytic activity screen of top 20 compounds) [1]	PRMT9 inhibitory effects (PABP1 R493me levels) ([1]; different concentrations of each compound, comparison among the three NSC compounds)	proportion / frequency of tumor cells [2]
COc1ccc2c(c1)c1ccc3c(c1n2C)C(=O)C=CC3=O [NSC641396]	most potent PRMT9 inhibition	most potent PRMT9 inhibitory effects	
Cc1cccc2c1c1ccc3c(c1n2C)C(=O)C=CC3=O [NSC645330]	most potent PRMT9 inhibition		
Cc1ccc2c(c1)c1ccc3c(c1n2C)C(=O)C=CC3=O [NSC661221]	most potent PRMT9 inhibition		
αPD-1: anti-PD-1 (pembrolizumab, SIM0010, BioXCell) used in ex-vivo AML cultures			marginally decreased the proportion of tumor cells
